# Values of other authors, collected in PMC6442678 (Journal of medicinal chemistry, 2018).
# Settings: mice, 24h after injection ref 52
substance,measurement,value
Mn-EDTA-BTA,injected Mn retained,> 50%
